Reference: US20250376472A1, “3-(PHENYLSULFONYL)-[1,2,3]TRIAZOLO[1,5A]QUINAZOLIN-5(4H)-ONE DERIVATIVES” (priority 2022, published 2025)

Molecular target: T1, AgrA (Staphylococcus aureus, UniProt P0A0I7)
T1 construct: endogenous in cells; host or cells: S. aureus USA300 strain UAMS-1625 carrying a P3-lacZ reporter plasmid
Test: cell-based
Design: species or system S. aureus
Settings: for Ratio IC50 (in presence of HSA)/IC50 (in absence of HSA): 40 mg/mL HSA versus no HSA
Procedure: The inventive compounds are 3-(phenylsulfonyl)-[1,2,3]triazolo[1,5a]quinazolin-5(4h)-one derivatives comprising an N-bound piperazine or homopiperazine at the 8-position of the [1,2,3]triazolo[1,5a]quinazolin-5(4h)-one core, further substituted (on the second nitrogen atom) by an (optionally substituted) acetyl or propionyl amide group. […] Specifically, the reporter gene lacZ (which encodes the protein product β-galactosidase) was transfected into S. aureus with a plasmid under control of the P3 promoter. The compounds were serially diluted in lysogeny broth (LB), and incubated with S. aureus. Following incubation, the S. aureus cells were lysed and treated with 4-methylumbelliferyl-galactopyranoside (MUG). The β-galactosidase produced by expression of lacZ cleaved the MUG into galactopyranose and 4-methylumbelliferone, which was measured by fluorescence.
The resulting reporter strain was used to measure AgrA inhibitory activity as follows. From an overnight culture plate, cells were resuspended in 0.9% (w/v) saline solution and bacterial inoculum was prepared in LB medium with 5×10^5 CFU/ml. Compounds were two-fold serially diluted in LB and 50 μL of this 10× concentrated samples were added into the 96-deep well plate. 500 μL of bacterial suspension was finally added to the compounds or DMSO control. Plates were covered and incubated with shaking at 37° C. After 18 hours incubation, 100 μL was transferred to a new clear 96-well plate and the OD600 was measured using a TECAN Infinite F200 microplate reader to control for growth inhibition. Another 100 μL was transferred to a new black 96-well plate containing 30 μL of lysis buffer (20 mM Tris/HCl, 3 mM MgCl2, 0.5% Tween 20 (v/v), 0.5% NP-40 (v/v)) and the plate was incubated with shaking at 37° C. for 60 min. 20 μL of the substrate MUG (4-Methylumbelliferyl O-D-galactopyranoside) at 0.25 mg/ml was added and the fluorescence (excitation: 360 nm, emission: 450 mu) was measured with a TECAN Infinite F200 microplate reader after 3 hours incubation at 37° C. with shaking. The IC50 was determined using GraphPad PRISM after normalization to DMSO control.

[1] = IC50 at 40 mg/mL HSA, LB medium supplemented with human serum albumin 40 mg/mL
[2] = IC50 without HSA, LB medium, no human serum albumin, 18 hours incubation
[3] = LB medium supplemented with human serum albumin 40 mg/mL
[4] = LB medium, no human serum albumin, 18 hours incubation

T1 sequence (P0A0I7 whole entry): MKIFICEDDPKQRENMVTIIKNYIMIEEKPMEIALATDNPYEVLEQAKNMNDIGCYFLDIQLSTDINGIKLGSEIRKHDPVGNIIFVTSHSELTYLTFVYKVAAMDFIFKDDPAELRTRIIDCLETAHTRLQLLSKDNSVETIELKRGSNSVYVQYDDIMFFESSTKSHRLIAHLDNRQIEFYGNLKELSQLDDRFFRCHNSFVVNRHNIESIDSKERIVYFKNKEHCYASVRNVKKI

SMILES | IC50 [1] [µM] | IC50 [2] [µM] | other results
Cc1ccc(S(=O)(=O)c2nnn3c2[nH]c(=O)c2ccc(N4CCCN(CC(=O)NC5CCCC5)CC4)cc23)c(C)c1 [Compound 52] | 17.3 to 86.5 | 1.73 to 8.65 | 
Cc1ccc(S(=O)(=O)c2nnn3c2[nH]c(=O)c2ccc(N4CCN(CC(=O)NCCc5ccccc5)CC4)cc23)c(C)c1 [Compound 109] | 16.7 to 83.4 | < 1.67 | 
Cc1ccc(S(=O)(=O)c2nnn3c2[nH]c(=O)c2ccc(N4CCN(CC(=O)NCCC5CCCN5C)CC4)cc23)c(C)c1 (stereo not shown) [Compound 95] |  |  | Ratio IC50 (in presence of HSA)/IC50 (in absence of HSA): +++ (+++: ratio ≤ 25); IC50 at 40 mg/mL HSA [3]: ++ (++: 10 μg/mL < IC50 ≤ 50 μg/mL); IC50 without HSA [4]: ++ (++: 1 μg/mL < IC50 ≤ 5 μg/mL)
Cc1ccc(S(=O)(=O)c2nnn3c2[nH]c(=O)c2ccc(N4CCN(CC(=O)NCCN5CCN(C)CC5)CC4)cc23)c(C)c1 [Compound 89] | 16.1 to 80.4 | 1.61 to 8.04 | 
Cc1ccc(S(=O)(=O)c2nnn3c2[nH]c(=O)c2ccc(N4CCN(CC(=O)N5CCCC(O)C5)CC4)cc23)c(C)c1 (stereo not shown) [Compound 67] | 17.3 to 86.3 | 1.73 to 8.63 | 
Cc1ccc(S(=O)(=O)c2nnn3c2[nH]c(=O)c2ccc(N4CCN(CC(=O)N5CCCN(CCO)CC5)CC4)cc23)c(C)c1 [Compound 71] | 16.1 to 80.3 | 1.61 to 8.03 | 
Cc1ccc(S(=O)(=O)c2nnn3c2[nH]c(=O)c2ccc(N4CCN(CC(=O)N5CCC5)CC4)cc23)c(C)c1 [Compound 54] | 18.7 to 93.3 | < 1.87 | 
Cc1ccc(S(=O)(=O)c2nnn3c2[nH]c(=O)c2ccc(N4CCN(CC(=O)NCCO)CC4)cc23)c(C)c1 [Compound 19] | 18.5 to 92.7 | < 1.85 | 
Cc1ccc(S(=O)(=O)c2nnn3c2[nH]c(=O)c2ccc(N4CCN(CC(=O)N5CCCC(=O)CC5)CC4)cc23)c(C)c1 [Compound 72] | 16.9 to 84.5 | < 1.69 | 
CSCCNC(=O)CN1CCN(c2ccc3c(=O)[nH]c4c(S(=O)(=O)c5ccc(C)cc5C)nnn4c3c2)CC1 [Compound 18] | 17.6 to 87.8 | < 1.76 | 
Cc1ccc(S(=O)(=O)c2nnn3c2[nH]c(=O)c2ccc(N4CCC4)cc23)c(C)c1 [Compound 45 of WO 2020/109350, reference compound] | > 122 | < 2.44 | Ratio IC50 (in presence of HSA)/IC50 (in absence of HSA): + (+: ratio > 125); IC50 (IC50 in the presence of 40 mg/mL HSA, 40 mg/mL HSA, highest concentration tested 128 μg/mL): > 313 µM; IC50 (concentration inhibiting the expression of lacZ in the absence of HSA, absence of HSA): < 2.44 µM
Cc1ccc(S(=O)(=O)c2nnn3c2[nH]c(=O)c2ccc(N4CCCN(CCC(=O)N5CCOCC5)CC4)cc23)c(C)c1 [Compound 168] |  |  | Ratio IC50 (in presence of HSA)/IC50 (in absence of HSA): +++ (+++: ratio ≤ 25); IC50 at 40 mg/mL HSA [3]: +++ (+++: IC50 ≤ 10 μg/mL); IC50 without HSA [4]: ++ (++: 1 μg/mL < IC50 ≤ 5 μg/mL)
Cc1ccc(S(=O)(=O)c2nnn3c2[nH]c(=O)c2ccc(N4CCN(CC(=O)N5CCCC5)CC4)cc23)c(C)c1 [Compound 1, 3-(2,4-dimethylphenyl)sulfonyl-8-[4-(2-oxo-2-pyrrolidin-1-yl-ethyl)piperazin-1-yl]-4H-triazolo[1,5-a]quinazolin-5-one] | 18.2 to 91 | < 1.82 | Ratio IC50 (in presence of HSA)/IC50 (in absence of HSA): ++ (++: 25 < ratio ≤ 125)
Cc1ccc(S(=O)(=O)c2nnn3c2[nH]c(=O)c2ccc(N4CCN(CC(=O)N5CCN(C6CC6)CC5)CC4)cc23)c(C)c1 [Compound 60] | < 16.5 | < 1.65 | 
Cc1ccc(S(=O)(=O)c2nnn3c2[nH]c(=O)c2ccc(N4CCCN(CC(=O)N5CCCCC5)CC4)cc23)c(C)c1 [Compound 85] | 17.3 to 86.5 | 1.73 to 8.65 | 
Cc1ccc(S(=O)(=O)c2nnn3c2[nH]c(=O)c2ccc(N4CCN(CC(=O)NCC5CC5)CC4)cc23)c(C)c1 [Compound 36] | 18.2 to 91 | < 1.82 | 
Cc1ccc(S(=O)(=O)c2nnn3c2[nH]c(=O)c2ccc(N4CCN(CC(=O)N5CCCC6(CCN(C)CC6)C5)CC4)cc23)c(C)c1 [Compound 128] | 15.5 to 77.3 | 1.55 to 7.73 | 
Cc1ccc(S(=O)(=O)c2nnn3c2[nH]c(=O)c2ccc(N4CCN(CC(=O)N5CCOCC5)CC4)cc23)c(C)c1 [Compound 2, 3-(2,4-dimethylphenyl)sulfonyl-8-[4-(2-morpholino-2-oxo-ethyl)piperazin-1-yl]-4H-triazolo[1,5-a]quinazolin-5-one] | < 17.7 | < 1.77 | Ratio IC50 (in presence of HSA)/IC50 (in absence of HSA): +++ (+++: ratio ≤ 25)
Cc1ccc(S(=O)(=O)c2nnn3c2[nH]c(=O)c2ccc(N4CCN(CC(=O)NCCn5cccc5)CC4)cc23)c(C)c1 [Compound 115] | 17 to 84.9 | < 1.7 | 
Cc1ccc(S(=O)(=O)c2nnn3c2[nH]c(=O)c2ccc(N4CCCN(CC(=O)NCc5ccccc5)CC4)cc23)c(C)c1 [Compound 123] | 16.7 to 83.4 | < 1.67 | 

SMILES | IC50 [1] [µM] | IC50 [2] [µM] | other results
Cc1ccc(S(=O)(=O)c2nnn3c2[nH]c(=O)c2ccc(N4CCN(CC(=O)N(C)C)CC4)cc23)c(C)c1 [Compound 8] | 19.1 to 95.5 | < 1.91 | 
Cc1ccc(S(=O)(=O)c2nnn3c2[nH]c(=O)c2ccc(N4CCN(CC(=O)NCCCCO)CC4)cc23)c(C)c1 [Compound 20] | 17.6 to 88.1 | < 1.76 | 
CCCNC(=O)CN1CCN(c2ccc3c(=O)[nH]c4c(S(=O)(=O)c5ccc(C)cc5C)nnn4c3c2)CC1 [Compound 5] | 18.6 to 93 | < 1.86 | 
Cc1ccc(S(=O)(=O)c2nnn3c2[nH]c(=O)c2ccc(N4CCN(CC(=O)NC5CNC5)CC4)cc23)c(C)c1 [Compound 138] | 18.2 to 90.8 | 1.82 to 9.08 | 
Cc1ccc(S(=O)(=O)c2nnn3c2[nH]c(=O)c2ccc(N4CCN(CC(=O)NC5CCC(N(C)C)CC5)CC4)cc23)c(C)c1 (stereo not shown) [Compound 42] | 16.1 to 80.5 | < 1.61 | 
Cc1ccc(S(=O)(=O)c2nnn3c2[nH]c(=O)c2ccc(N4CCN(CC(=O)NCCc5cccs5)CC4)cc23)c(C)c1 [Compound 116] | 16.5 to 82.5 | < 1.65 | 
Cc1ccc(S(=O)(=O)c2nnn3c2[nH]c(=O)c2ccc(N4CCCN(CC(=O)Nc5ccccc5)CC4)cc23)c(C)c1 [Compound 122] | 17.1 to 85.4 | < 1.71 | 
Cc1ccc(S(=O)(=O)c2nnn3c2[nH]c(=O)c2ccc(N4CCN(CC(=O)N5CCCCCC5)CC4)cc23)c(C)c1 [Compound 56] |  |  | Ratio IC50 (in presence of HSA)/IC50 (in absence of HSA): ++ (++: 25 < ratio ≤ 125); IC50 at 40 mg/mL HSA [3]: ++ (++: 10 μg/mL < IC50 ≤ 50 μg/mL); IC50 without HSA [4]: +++ (+++: IC50 ≤ 1 μg/mL)
Cc1ccc(S(=O)(=O)c2nnn3c2[nH]c(=O)c2ccc(N4CCCN(CC(=O)NC5CCOCC5)CC4)cc23)c(C)c1 [Compound 103] | < 16.8 | 1.68 to 8.42 | 
CCCCCCNC(=O)CN1CCN(c2ccc3c(=O)[nH]c4c(S(=O)(=O)c5ccc(C)cc5C)nnn4c3c2)CC1 [Compound 12] | 17.2 to 86.2 | < 1.72 | 
Cc1ccc(S(=O)(=O)c2nnn3c2[nH]c(=O)c2ccc(N4CCN(CC(=O)N5CCC(N)CC5)CC4)cc23)c(C)c1 [Compound 141] | < 17.3 | 1.73 to 8.64 | 
Cc1ccc(S(=O)(=O)c2nnn3c2[nH]c(=O)c2ccc(N4CCN(CC(=O)N5CCCOCC5)CC4)cc23)c(C)c1 [Compound 57] | 17.3 to 86.3 | < 1.73 | 
Cc1ccc(S(=O)(=O)c2nnn3c2[nH]c(=O)c2ccc(N4CCN(CC(=O)NCCN5CCOCC5)CC4)cc23)c(C)c1 [Compound 91] | 16.4 to 82.1 | 1.64 to 8.21 | 
Cc1ccc(S(=O)(=O)c2nnn3c2[nH]c(=O)c2ccc(N4CCN(CC(=O)NCC(C)C)CC4)cc23)c(C)c1 [Compound 7] | 18.1 to 90.6 | < 1.81 | 
Cc1ccc(S(=O)(=O)c2nnn3c2[nH]c(=O)c2ccc(N4CCN(CC(=O)NC5CCNCC5)CC4)cc23)c(C)c1 [Compound 140] | 17.3 to 86.4 | 1.73 to 8.64 | 
COCCCNC(=O)CN1CCN(c2ccc3c(=O)[nH]c4c(S(=O)(=O)c5ccc(C)cc5C)nnn4c3c2)CC1 [Compound 17] | 17.6 to 88.1 | < 1.76 | 
Cc1ccc(S(=O)(=O)c2nnn3c2[nH]c(=O)c2ccc(N4CCN(CC(=O)N5CCN6CCCC6C5)CC4)cc23)c(C)c1 (stereo not shown) [Compound 130] | < 16.5 | < 1.65 | 
Cc1ccc(S(=O)(=O)c2nnn3c2[nH]c(=O)c2ccc(N4CCN(CC(=O)NC5CC5)CC4)cc23)c(C)c1 [Compound 33] | 18.7 to 93.3 | < 1.87 | 
Cc1ccc(S(=O)(=O)c2nnn3c2[nH]c(=O)c2ccc(N4CCN(CC(=O)N5CCCC(CN)C5)CC4)cc23)c(C)c1 (stereo not shown) [Compound 144] | < 16.9 | 1.69 to 8.44 | 
Cc1ccc(S(=O)(=O)c2nnn3c2[nH]c(=O)c2ccc(N4CCN(CC(=O)NCCC(F)(F)F)CC4)cc23)c(C)c1 [Compound 14] | 16.9 to 84.5 | < 1.69 | 
